This assay deals with MAPK14 (human) (UniProt Q16539). Put plainly: Inhibition of LPS Stimulated TNF Production by U937 Cells. To be noted: for inhibition: concentration not given here.

Consider 81 compounds from the Kinase Knowledgebase extract (Sharma et al. 2016).

Chain of MAPK14 (human) (Q16539 whole entry, looked up): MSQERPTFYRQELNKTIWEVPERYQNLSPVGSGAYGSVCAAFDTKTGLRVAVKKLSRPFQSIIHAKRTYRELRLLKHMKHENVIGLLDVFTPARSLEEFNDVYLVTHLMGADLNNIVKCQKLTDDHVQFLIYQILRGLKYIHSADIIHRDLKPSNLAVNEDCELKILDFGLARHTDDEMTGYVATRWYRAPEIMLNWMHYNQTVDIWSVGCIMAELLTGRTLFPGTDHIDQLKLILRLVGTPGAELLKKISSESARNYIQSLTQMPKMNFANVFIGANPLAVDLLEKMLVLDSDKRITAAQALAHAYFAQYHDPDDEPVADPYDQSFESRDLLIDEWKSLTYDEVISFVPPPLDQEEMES

Compound `C[C@H](NS(=O)(=O)C[C@]12CC[C@@H](CC1=O)C2(C)C)c1[nH]nc(-c2ccc(F)cc2)c1-c1ccncc1` had an inhibition of 60%.

With `CC(C)(C)c1ccc(S(=O)(=O)NCc2[nH]nc(-c3ccc(F)cc3)c2-c2ccncc2)cc1`, the 50% inhibitory concentration (IC50) is more than 1000 nM. In turn, `CN(C)CCCNC(=O)NCCCc1[nH]nc(-c2ccc(F)cc2)c1-c1ccncc1` gave an IC50 of more than 1000 nM.

As to `C[C@H](NS(=O)(=O)c1ccc(-c2ccon2)s1)c1[nH]nc(-c2ccc(F)cc2)c1-c1ccncc1`, the inhibition came out at 95%. `O=S(=O)(NCc1[nH]nc(-c2ccc(F)cc2)c1-c1ccncc1)c1cccc(C(F)(F)F)c1` registered an inhibition of 75%. On the same count and under the same terms, for `COc1ccc(C)cc1S(=O)(=O)N[C@H](C)c1[nH]nc(-c2ccc(F)cc2)c1-c1ccncc1` the value was 92%; for `CCN(CC)C(=O)N[C@@H](C)c1[nH]nc(-c2ccc(F)cc2)c1-c1ccncc1`, 63%; for `CCCOC(=O)N[C@H](C)c1[nH]nc(-c2ccc(F)cc2)c1-c1ccncc1`, 54%. `Cc1c(C)c(S(=O)(=O)N[C@H](C)c2[nH]nc(-c3ccc(F)cc3)c2-c2ccncc2)c(C)c2c1OC(C)(C)CC2` had an inhibition of 68%. Still for that read-out and setting: as for `Cc1ccc(S(=O)(=O)N[C@H](C)c2[nH]nc(-c3ccc(F)cc3)c2-c2ccncc2)cc1`, the figure is 39%; as for `C[C@@H](NC(=O)c1ccccc1)c1[nH]nc(-c2ccc(F)cc2)c1-c1ccncc1`, 19%.

On to `O=C(NCc1[nH]nc(-c2ccc(F)cc2)c1-c1ccncc1)c1ccc(F)c(C(F)(F)F)c1`, for which the inhibition is 22%. `CC(C)C(=O)N[C@@H](C)c1[nH]nc(-c2ccc(F)cc2)c1-c1ccncc1` had an IC50 of 1010 nM.

In turn, `OCCCNc1cc(-c2c[nH]nc2-c2ccc(F)cc2)ccn1` returned an IC50 of 97.3 nM. In turn, `CC(C)NC(=O)NCCc1[nH]nc(-c2ccc(F)cc2)c1-c1ccncc1` returned an inhibition of 54%.

On to `C[C@H](NC(=O)c1cc2ccccc2s1)c1[nH]nc(-c2ccc(F)cc2)c1-c1ccncc1`, for which the inhibition was determined as 48%.

As for `C[C@@H](NC(=O)NCc1ccccc1)c1[nH]nc(-c2ccc(F)cc2)c1-c1ccncc1`, the IC50 amounted to 2420 nM.

Compound `CC(Nc1cc(-c2c[nH]nc2-c2ccc(F)cc2)ccn1)c1ccc(F)cc1` (stereo not drawn) showed a half-maximal inhibitory concentration (IC50) of 4.4 nM. `Cc1cccc(Cl)c1S(=O)(=O)N[C@@H](C)c1[nH]nc(-c2ccc(F)cc2)c1-c1ccncc1` returned an inhibition of 89%. For the compound `O=C(NCc1[nH]nc(-c2ccc(F)cc2)c1-c1ccncc1)[C@@H]1C[C@@H]1c1ccccc1`, the inhibition stood at 28%.

`C[C@H](NS(=O)(=O)c1ccc(-c2ccccc2)cc1)c1[nH]nc(-c2ccc(F)cc2)c1-c1ccncc1`: the inhibition was found to be 91%.

`C[C@@H](NC(=O)c1cccc(F)c1)c1[nH]nc(-c2ccc(F)cc2)c1-c1ccncc1` showed an inhibition of 52%. Same read-out and setting: for `CCCS(=O)(=O)N[C@H](Cc1ccccc1)c1[nH]nc(-c2ccc(F)cc2)c1-c1ccncc1` the value was 13%; for `C[C@H](NS(=O)(=O)c1ccc(Cl)cc1Cl)c1[nH]nc(-c2ccc(F)cc2)c1-c1ccncc1`, 88%. Regarding `O=C(NCCCc1[nH]nc(-c2ccc(F)cc2)c1-c1ccncc1)NCc1ccccn1`, the inhibition turned out to be 10%. Turning to `Cc1cccc(C)c1NC(=O)NCc1[nH]nc(-c2ccc(F)cc2)c1-c1ccncc1`, the concentration for half-maximal inhibition (IC50) was found to be 2360 nM. That is a single-digit micromolar value. `Cn1nc(-c2ccc(F)cc2)c(-c2ccncc2)c1C(O)c1ccccc1` (stereo not drawn) registered a half-maximal inhibitory concentration (IC50) of 349 nM. This IC50 lies about 6.8-fold lower than the previous one. For `O=S(=O)(c1cccc(Cl)c1)N1CCC(c2[nH]nc(-c3ccc(F)cc3)c2-c2ccncc2)CC1`, the inhibition is 31%. Same read-out and setting: as for `O=C(NCCc1[nH]nc(-c2ccc(F)cc2)c1-c1ccncc1)c1ccc(Cl)cc1`, the figure is 29%.

In the case of `Cc1[nH]nc(-c2ccc(Br)cc2)c1-c1ccncc1`, the IC50 was 244 nM. On the same count and under the same terms, as for `Cn1cc(-c2ccncc2)c(-c2cccc(F)c2)n1`, the figure is 462 nM. In turn, `CNC(=O)N[C@@H](Cc1ccccc1)c1[nH]nc(-c2ccc(F)cc2)c1-c1ccncc1` yielded an inhibition of 11%. On the same count and under the same terms, as for `Cc1c(-c2ccncc2)c(-c2ccc(F)cc2)nn1CC(=O)N[C@H](C)c1cccc2ccccc12`, the figure is 23%; as for `C[C@H](NS(=O)(=O)c1ccc(Cl)s1)c1[nH]nc(-c2ccc(F)cc2)c1-c1ccncc1`, 95%.

`O=C(NCCc1[nH]nc(-c2ccc(F)cc2)c1-c1ccncc1)Nc1ccc(F)cc1` gave an IC50 of 2710 nM and an inhibition of 39%.

`O=C(NCc1ccc(S(=O)(=O)NCc2[nH]nc(-c3ccc(F)cc3)c2-c2ccncc2)s1)c1ccccc1` came in with an inhibition of 68%. Consider `O=C(c1ccc(I)cc1)N1CCC(c2[nH]nc(-c3ccc(F)cc3)c2-c2ccncc2)CC1`, for which the IC50 worked out at 270 nM.

`O=S(=O)(NCCc1[nH]nc(-c2ccc(F)cc2)c1-c1ccncc1)c1cc(Cl)c(Cl)s1` registered an inhibition of 28%. Same read-out and setting: for `O=S(=O)(NCc1[nH]nc(-c2ccc(F)cc2)c1-c1ccncc1)c1ccccc1Cl` the value was 70%; for `C[C@@H](NS(=O)(=O)[C@@]12CC[C@H](CC1=O)C2(C)C)c1[nH]nc(-c2ccc(F)cc2)c1-c1ccncc1`, 54%. Same read-out and setting: as for `O=C(NCCc1[nH]nc(-c2ccc(F)cc2)c1-c1ccncc1)c1cnc2ccccc2n1`, the figure is 20%. Same read-out and setting: as for `Cc1ccccc1C(=O)N[C@H](C)c1[nH]nc(-c2ccc(F)cc2)c1-c1ccncc1`, the figure is 42%. The compound `O=C(NCc1[nH]nc(-c2ccc(F)cc2)c1-c1ccncc1)Nc1ccccc1OC(F)(F)F` displayed an inhibition of 25%.

For the compound `Cc1cc(C)c(NC(=O)NCc2[nH]nc(-c3ccc(F)cc3)c2-c2ccncc2)c(C)c1`, the inhibition was 25%. Turning to `O=C(NCc1[nH]nc(-c2ccc(F)cc2)c1-c1ccncc1)c1ccc(F)c(F)c1`, the IC50 came out at 1010 nM and the inhibition worked out at 26%.

For the compound `CN(C)CCn1cc(-c2ccnc(N(C)C)c2)c(-c2ccc(F)cc2)n1`, the IC50 was more than 10000 nM. `CCCCOc1ccc(S(=O)(=O)N[C@H](C)c2[nH]nc(-c3ccc(F)cc3)c2-c2ccncc2)cc1` yielded an inhibition of 67%. On to `CCCNC(=O)N[C@@H](C)c1[nH]nc(-c2ccc(F)cc2)c1-c1ccncc1`, for which the half-inhibitory concentration (IC50) was determined as 38000 nM. This counts as double-digit micromolar. `C[C@H](NS(=O)(=O)c1ccc(Cl)c(Cl)c1)c1[nH]nc(-c2ccc(F)cc2)c1-c1ccncc1` returned an inhibition of 90%. `Cc1c(-c2ccncc2)c(-c2ccc(F)cc2)nn1CC(=O)NCCc1ccc(Oc2ccccc2)cc1` gave a half-inhibitory concentration (IC50) of 780 nM.

The compound `C[C@@H](NS(=O)(=O)c1cccc(Br)c1)c1[nH]nc(-c2ccc(F)cc2)c1-c1ccncc1` gave an inhibition of 95%. In the case of `CC(C)=CC(=O)N[C@H](Cc1ccccc1)c1[nH]nc(-c2ccc(F)cc2)c1-c1ccncc1`, the IC50 was more than 1000 nM. Still for that read-out and setting: for `CCN(CC)CCn1cc(-c2ccnc(NCc3ccc(F)cc3)c2)c(-c2ccc(F)cc2)n1` the value was 700 nM. The compound `CCNC(=O)NCc1[nH]nc(-c2ccc(F)cc2)c1-c1ccncc1` came in with an inhibition of 28%. The compound `C[C@@H](NS(=O)(=O)c1c(Cl)cccc1Cl)c1[nH]nc(-c2ccc(F)cc2)c1-c1ccncc1` registered an inhibition of 75%.

`O=S(=O)(NCc1[nH]nc(-c2ccc(F)cc2)c1-c1ccncc1)c1cccc2cnccc12` yielded an inhibition of 24%. Compound `COc1ccc(S(=O)(=O)N[C@@H](C)c2[nH]nc(-c3ccc(F)cc3)c2-c2ccncc2)cc1OC` returned an inhibition of 66%. On the same count and under the same terms, for `COc1ccccc1C(=O)N[C@H](C)c1[nH]nc(-c2ccc(F)cc2)c1-c1ccncc1` the value was 23%. The compound `O=C(N[C@H](Cc1ccccc1)c1[nH]nc(-c2ccc(F)cc2)c1-c1ccncc1)C1CC1` had an IC50 of more than 1000 nM.

On to `O=C(NCc1[nH]nc(-c2ccc(F)cc2)c1-c1ccncc1)c1ccccc1C(F)(F)F`, for which the half-inhibitory concentration (IC50) amounted to 3950 nM. `COc1ccc(CC(=O)N[C@H](C)c2[nH]nc(-c3ccc(F)cc3)c2-c2ccncc2)cc1OC`: the inhibition is 28%. `COc1ccc(C)cc1S(=O)(=O)NCc1[nH]nc(-c2ccc(F)cc2)c1-c1ccncc1` yielded an IC50 of more than 1000 nM. `O=C(N[C@H](Cc1ccccc1)c1[nH]nc(-c2ccc(F)cc2)c1-c1ccncc1)c1ccncc1` showed an inhibition of 25%. Take `C=CCOC(=O)N[C@H](C)c1[nH]nc(-c2ccc(F)cc2)c1-c1ccncc1`: the IC50 was determined as 660 nM. With `C[C@@H](NS(=O)(=O)c1cccc(Cl)c1)c1[nH]nc(-c2ccc(F)cc2)c1-c1ccncc1`, the inhibition was 97%. On to `COc1ccc(CC(=O)N[C@H](C)c2[nH]nc(-c3ccc(F)cc3)c2-c2ccncc2)cc1`, for which the inhibition was determined as 29%. Still for that read-out and setting: for `Cc1ccc(S(=O)(=O)N[C@@H](Cc2ccccc2)C(=O)NCCCc2[nH]nc(-c3ccc(F)cc3)c2-c2ccncc2)cc1` the value was 36%; for `CC(=O)Nc1ccc(S(=O)(=O)NCCc2[nH]nc(-c3ccc(F)cc3)c2-c2ccncc2)cc1`, 24%.

`CC(Oc1ccccc1)C(=O)NCc1[nH]nc(-c2ccc(F)cc2)c1-c1ccncc1` (stereo not drawn): the concentration for half-maximal inhibition (IC50) worked out at 2260 nM. Turning to `Cc1ccc(S(C)(=O)=O)cc1S(=O)(=O)NCc1[nH]nc(-c2ccc(F)cc2)c1-c1ccncc1`, the inhibition worked out at 23%. The same measure, in the same setting: for `CC(C)COC(=O)N[C@H](C)c1[nH]nc(-c2ccc(F)cc2)c1-c1ccncc1` the value was 32%. As for `O=C(Cc1cccc2ccccc12)NCc1[nH]nc(-c2ccc(F)cc2)c1-c1ccncc1`, the inhibition came out at 21%. In turn, `C[C@@H](NC(=O)c1cc(F)cc(F)c1)c1[nH]nc(-c2ccc(F)cc2)c1-c1ccncc1` returned an inhibition of 48%.

Compound `COc1ccc(CC(=O)N[C@@H](C)c2[nH]nc(-c3ccc(F)cc3)c2-c2ccncc2)cc1OC` registered an inhibition of 28%.

For `O=C(NCc1[nH]nc(-c2ccc(F)cc2)c1-c1ccncc1)Nc1ccccc1`, the inhibition was 31%. Compound `CNC(=O)N[C@@H](C)c1[nH]nc(-c2ccc(F)cc2)c1-c1ccncc1` had an inhibition of 79%. Same read-out and setting: for `O=C(NCc1[nH]nc(-c2ccc(F)cc2)c1-c1ccncc1)c1ccccc1Cl` the value was 55%.

For the compound `Cn1cc(-c2ccncc2)c(-c2ccc3c(c2)OCO3)n1`, the IC50 was 322 nM. Still for that read-out and setting: as for `Cc1[nH]nc(-c2ccc(Cl)cc2)c1-c1ccncc1`, the figure is 201 nM. Regarding `CS(=O)(=O)NCc1[nH]nc(-c2ccc(F)cc2)c1-c1ccncc1`, the IC50 was found to be 5000 nM. Regarding `O=C(C1CC1)N1CCC(c2[nH]nc(-c3ccc(F)cc3)c2-c2ccncc2)CC1`, the IC50 turned out to be 270 nM.

A word on the inhibition: it is the share of the control response that was lost under treatment. Low readings indicate little suppression, high ones strong suppression. As a reminder, the IC50 is the concentration that inhibits the measured activity by half. A lower IC50 goes with inhibition by little substance.
